# Results from ChEMBL document CHEMBL4619773, “Chemoreactive-Inspired Discovery of Influenza A Virus Dual Inhibitor to Block Hemagglutinin-Mediated Adsorption and Membrane Fusion” (J Med Chem, 2020).
# Test system: Influenza A virus
# Type: functional, organism-based
structure (smiles),measurement,value
CC(=O)c1cc(C)c(O)c(Cc2[nH]c3ccccc3c2Cc2c(O)c(C)cc(C(C)=O)c2O)c1O,IC50,> 42 µg/mL
